Our source for the GI50 and TGI values is PubChem BioAssay (NCI).

What all share (test): NCI-60 cell line screen, 48 h
Assay [1] concerns A549 NSCLC.
In assay [2] the test system is ACHN renal.
For assay [3], the system named is CCRF-CEM leukemia.
Assay [4] has as its system HCT-15 colon.
Assay [5] has as its system MCF7 breast.
For assay [6], the system named is NCI-H226 lung.
Assay [7] deals with NCI-H522 lung.
In assay [8] the test system is OVCAR-3 ovarian.
For assay [9], the system named is SF-539 CNS.
Assay [10] relates to SNB-75 CNS.

Values joined by “and” are separate entries in the source; they are usually repeats but may differ in a detail not shown here. Equal entries are not always repeated.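 Dose response: 5 concentrations. Exposure: 48 h. Format: 96-well plates. Endpoint: linear interpolation; highest concentration if not reached. GI50: concentration for 50% inhibition of growth. The concentration for full growth arrest is given as TGI.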

For the molecule `COc1ccc(S(=O)(=O)N2CC(C)(C)CN(S(=O)(=O)c3ccc(OC)cc3)C2C(=O)NO)cc1`, the GI50 in assay [1] is > 20000 nM; in assay [2] it was > 20000 nM; in [3] it was 1290 nM; in assay [4], > 20000 nM; in assay [5], > 20000 nM; in assay [6], > 17100 nM. Also, the GI50 is > 20000 nM in assay [7], 19800 nM in [8], > 20000 nM in [9] and > 20000 nM in [10]. For the same molecule, the TGI was > 20 µM in assay [1]; > 20 µM in assay [2]; > 16.6 µM in assay [3]; > 20 µM in assay [4]; > 20 µM in assay [5]; > 20 µM in assay [6]. For the same molecule, the TGI in assay [7], in [8], in assay [9] and in [10] was > 20 µM throughout.
As to `C#CCOc1cccc(-c2ncnc3cc(NC(=O)CCl)ccc23)c1`, the GI50 is 451 nM in assay [1]; 419 nM in assay [2]; 24.9 nM in assay [3]; 17.9 nM in assay [4]; 76.4 nM in assay [5]; 1420 nM in assay [6]. Also, the GI50 in [7] is 149 nM; in [8] it was 617 nM; in assay [9] it was 1310 nM; in [10] it was 1150 nM. Also, the TGI was 3.96 µM in assay [1]; 2.06 µM in assay [2]; 1.71 µM in [4]; 1.75 µM in [5]; 5.54 µM in [6]; 1.71 µM in assay [7]. Moreover, the TGI turned out to be 2.07 µM in [8], 2.77 µM in assay [9] and 9.48 µM in assay [10].
Regarding `Fc1ccc2[nH]cc(-c3nonc3-c3c[nH]c4ccc(Br)cc34)c2c1`, the GI50 in assay [1] was 2870 nM; in [2] it was 2000 nM; in assay [3] it was 3070 nM; in assay [4] it was 1640 nM; in assay [5] it was 2190 nM; in assay [6], 2130 nM. Further, the GI50 in assay [7] was 1850 nM; in assay [8] it was 2070 nM; in [9], 2150 nM; in [10], 1890 nM. Also, the TGI in assay [1] was 7.99 µM; in [2], 8.42 µM; in assay [3], 14.9 µM; in [4] it was 3.29 µM; in assay [5], 5.66 µM; in assay [6] it was 5.3 µM. Besides, the TGI in assay [7] came to 4.47 µM; in [8] it was 5.43 µM; in assay [9], 5.27 µM; in assay [10], 16.9 µM.
For `COc1ccc(C(=O)/C=C/c2ccc(C)cc2)cc1OC`, the GI50 in [1] is 11200 nM; in [2] it was 14200 nM; in assay [3], 25100 nM; in assay [4], 8520 nM; in assay [5], 3090 nM; in [6] it was 13500 nM. Also, the GI50 is 11100 nM in [7], 2550 nM in assay [8], 5320 nM in [9] and 8930 nM in assay [10]. The TGI in assay [1] amounted to 26 µM; in assay [2] it was 28.1 µM; in assay [3] it was 61.2 µM; in assay [4] it was 22.1 µM; in assay [5], 15.1 µM; in assay [6], 31.5 µM. Further, the TGI turned out to be 26.4 µM in [7], 12.7 µM in [8], 18.2 µM in assay [9] and 21.3 µM in assay [10].
`Cc1ccc(S(=O)(=O)NC(=O)C2C(=O)CC3(CCCCC3)CC2=O)cc1`: the TGI in assay [1] was > 100 µM; in assay [2], 62.1 µM; in assay [3] it was 69.8 µM; in assay [4] it was 62.4 µM; in [5] it was 55.7 µM; in [6], > 100 µM. Moreover, the TGI in assay [7] was 59.9 µM; in assay [8] it was 92.2 µM; in assay [9], 77.5 µM; in [10], > 100 µM.
For `FC(F)c1nc2ccccc2n1-c1nc(N2CCOCC2)nc(N2CCOCC2)n1`, the GI50 is 518 nM and 584 nM in assay [1]; 299 nM and 397 nM in assay [2]; 495 nM and 556 nM in [3]; 389 nM and 479 nM in assay [4]; 136 nM and 129 nM in [5]; 249 nM and 452 nM in assay [6]. In addition, the GI50 is 222 nM and 295 nM in assay [7]; 204 nM and 281 nM in [8]; 382 nM and 457 nM in [9]; 25.7 nM and 29.5 nM in [10]. The TGI in [1] was > 100 µM; in assay [2], > 100 µM; in assay [3], > 100 µM; in assay [4], > 100 µM; in assay [5], > 62.7 µM; in assay [7], 2.69 µM. Further, the TGI in assay [8] is 3.44 µM and 5.67 µM; in [9] it was 2.29 µM and 3.52 µM; in [10], 0.403 µM and 0.481 µM.
Take `CCOC(=O)N1CCN(c2nc(Nc3cc(C)[nH]n3)c3ccccc3n2)CC1`: the GI50 in assay [1] was 7600 nM; in assay [2], 707 nM; in assay [3], 10100 nM; in assay [4] it was 992 nM; in assay [5] it was 4610 nM; in [6], 1580 nM. Further, the GI50 in [7] was 2820 nM; in assay [8], 7690 nM; in [9], 1920 nM; in assay [10] it was 727 nM. Moreover, the TGI in assay [1] is 28.8 µM; in [2], > 100 µM; in assay [3] it was 56.2 µM; in [4] it was > 100 µM; in assay [5] it was > 100 µM; in [6], 10.8 µM. Also, the TGI in assay [7] is 30.7 µM; in [8], 37.3 µM; in assay [9] it was 9.7 µM; in [10], 5.66 µM.
With `COC(=O)c1c2c(c[n+]([O-])c1C)C(=O)C=CC2=O`, the GI50 in assay [1] is 16100 nM; in [2] it was 1730 nM; in assay [3] it was 2500 nM; in assay [4], 1780 nM; in [5], 1650 nM; in assay [6], 2120 nM. Also, the GI50 is 1720 nM in assay [7], 317 nM in assay [8], 1790 nM in assay [9] and 1720 nM in assay [10]. The TGI in assay [1] worked out at 40.1 µM; in assay [2], 3.22 µM; in assay [3] it was 6.57 µM; in assay [4] it was 3.51 µM; in [5] it was 3.46 µM; in assay [6], 4.52 µM. Moreover, the TGI came out at 4.5 µM in assay [7], 1.17 µM in assay [8], 3.39 µM in assay [9] and 4.13 µM in assay [10].
